# Data: US9974745B2, “Encochleation methods, cochleates and methods of use” (RUTGERS, THE STATE UNIVERSITY OF NEW JERSEY, priority 2003, dated 2018)
# Experiments:
# [1] = HPLC stability of TY in cochleates versus free TY in solution; type: physicochemical
# From the text: HPLC was used to study the stability of the TY in the cochleates, by measuring the concentration of TY in TY-cochleates as compared to free, i.e., unencochleated TY in solution.
# stomachs of rats = assay: Gastric irritation (bleeding and ulcerations) in rats; type: in vivo, rat; settings: stomachs examined 4 hours post carrageenan injection; samples 2, 3, 7 and 9
# Method: A carrageenan model was employed to study the effect of anti-inflammatory cochleates on edema in rat paws. Various aspirin cochleates of the invention were used to treat carrageenan-induced rat paw edema. […] Additionally, rats in all groups were examined for gastric irritation.
# Samples 6-10 were prepared in accordance with Example 16, except that the lipid:aspirin molar ratio was 5:1 and soy PS was used instead of DOPS. Samples 4, 5, and 11 were prepared in a similar manner in the absence of a cargo moiety. In all cases, water was used in lieu of TES buffer. All samples were given by oral gavage at 1 hour prior to injection of carrageenan on Day 0 in a volume of 3 mL of 0.5% methylcellulose. […] Volumes of rat paw (in ml) were measured prior to carrageenan injection using a semi-automated plethysmograph (Buxco). At 0 time, 0.1 ml of 1% carrageenan in 0.9% pyrogen free saline was injected into the right hind paw of the rat. The paw volumes (in ml) were measured again 3 hours post carrageenan injection to determine inhibition of paw edema. Four rats from each of groups 2, 3, 6, 7, 8, 9 and 10 and one rat from each of groups 1, 4, 5 and 11 were bled (intravenously, jugular vein, approximately 1 ml blood) at 30 minutes and 4 hours post drug administration. Blood was collected in heparinized vacutainers. […]
# SKOV3 cells = assay: Interaction of ZnTPP-cochleates with SKOV3 cells, confocal fluorescence; type: cell-based
# From the text: Phase contrast light microscopy and confocal microscopy (Olympus) was used to image liposomal suspensions, cochleates and cells, with and without the aid of fluorescence, which can be used, e.g., to study cellular uptake and intracellular distribution of fluorescently labeled cochleates and cargo moieties. Confocal microscopy is particularly advantageous as it is a 3-dimensional digital imaging device that can be used to effectively view slices of cell culture. This allows verification of the presence of cochleate and other agents within a cell.
# In order to study any interaction of the cochleates with cells, ZnTPP-cochleates and free ZnTPP (in solution with DMSO) were introduced to SKOV3 cell cultures, and imaged with fluorescence under a confocal microscope.
# Cochleates were prepared with and without ZnTPP as described above, except that prior to introduction of the ZnTPP/solvent, liposomes were formed with 1% diolyl phosphatidylethanolamine (DOPE) liganded to pyrene (purchased Avanti). The DOPE was incorporated into the soy PS liposomes by dissolving both DOPE and lipid in solvent, drying the solvent to a film, and using an aqueous solution to form liposomes. Confocal images were taken at 1 and 24 hours after introduction to SKOV3 cells to study the uptake and any difference in the cellular distribution of cochleate/lipid and the ZnTPP. […]
smiles,measurement,setting,value
"COc1cc(/C=C(\C#N)C(N)=O)cc(CSc2nc3ccccc3s2)c1O [free TY, Tyrphostin AG-825]",concentration of degradation products (impurity 1 and impurity 2) over time,[1],degraded over time
same,TY concentration over time (stability),[1]; cochleates versus free TY in solution,decreased to zero
"CC(=O)Oc1ccccc1C(=O)O [unencochleated aspirin, aspirin]",incidence and level of severity of gastric irritation,stomachs of rats,"greatest gastric irritation, followed by unencochleated aspirin"
COc1ccc2c(c1)c(CC(=O)O)c(C)n2C(=O)c1ccc(Cl)cc1 [indomethacin],incidence and level of severity of gastric irritation,stomachs of rats,greatest gastric irritation
"C1=Cc2nc1c(-c1ccccc1)c1ccc([n-]1)c(-c1ccccc1)c1nc(c(-c3ccccc3)c3ccc([n-]3)c2-c2ccccc2)C=C1.[Zn+2] [free ZnTPP, Zinc Tetra-Phenyl Porphyrin]",degradation of ZnTPP in SKOV3 cell culture,SKOV3 cells; at 24 hours,significant degradation
same,uptake by SKOV3 cells,SKOV3 cells; confocal fluorescence images at 1 hour and 24 hours,high uptake
